Results taken from EP4566600A1, “AFFECTIVE DISORDER AMELIORATING AGENT” (National University Corporation Kobe University, priority 2022, dated 2024).

Assays:
[1] = target: T1, GFP-PKCγ (Homo sapiens, UniProt P05129); experiment: PKCγ activity inhibitory action in TPA-treated COS7 cells expressing GFP-PKCγ (Western blotting for PKCγ and phosphorylated PKCγ); type: cell-based; details: treated with TPA and flavonoid, n=2 (Fig. 5)
T1 construct: expressed in transfected cells; host or cells: COS7 cells, electroporation, 48 h
Method: The PKCγ activity inhibitory action of various flavonoids was tested. Scutellarin (Scu), baicalin (Bai), luteolin (Lut), and apigenin (Api) were used as various flavonoids. A plasmid encoding GFP-PKCγ was introduced into COS7 cells by electroporation and cultured for 48 hours to express GFP-PKCγ. After treating the cells with TPA (12-O-Tetradecanoylphorbol-13-acetate, activator of PKCγ) and each flavonoid, the cells were ground and proteins were subjected to SDS-PAGE. Thereafter, Western blotting was performed for PKCγ and phosphorylated PKCγ (activated form).

[2] = system: affective disorder model mice (DGKβKO mice); experiment: elevated plus maze test (affective disorder evaluation system 1); type: in vivo; details: relative to that in the case of taking placebo; male affective disorder model mice aged 8-11 weeks, drinking water containing 600 mg/L of lithium for 10 consecutive days
Method: Mice in which DGKβ was knocked out (DGKβKO mice) were prepared as an affective disorder (mania) model. This model mice are not associated with dementia.
An elevated plus maze test was used. In an elevated plus maze, a passage with a wall (closed arm) and a passage without a wall (open arm) crossed each other in a cross shape, and normal mice (WT) were afraid of the open arm and stayed in the closed arm for a long time, while affective disorder model mice were less likely to feel anxiety and stayed in the open arm for a long time. Based on this, the ratio of the residence time in the open arm in the test time was used as an index of anxiety.
Male affective disorder model mice aged 8-11 weeks were allowed to freely drink water containing 600 mg/L of lithium for 10 consecutive days.
The affective disorder model mice orally administered with lithium were subjected to affective disorder evaluation system 1 (elevated plus maze test) to evaluate amelioration of affective disorder (mania).

| Compound | PKCγ activity inhibitory action [1] | ratio of the residence time in the open arm [2] |
| --- | --- | --- |
| O=C(O)[C@H]1O[C@@H](Oc2cc3oc(-c4ccccc4)cc(=O)c3c(O)c2O)[C@H](O)[C@@H](O)[C@@H]1O [baicalin] | observed | – |
| O=c1cc(-c2ccc(O)c(O)c2)oc2cc(O)cc(O)c12 [luteolin] | observed | – |
| O=c1cc(-c2ccc(O)cc2)oc2cc(O)cc(O)c12 [apigenin] | observed | – |
| [Li] [lithium] | – | about 30% |
